Data published in ChEMBL document CHEMBL4818988, “Structure-Activity Relationships for the Marine Natural Product Sintokamides: Androgen Receptor N-Terminus Antagonists of Interest for Treatment of Metastatic Castration-Resistant Prostate Cancer” (J Nat Prod, 2021).
Values belong to the compound of their own block, whether it stands above or below them. Calls of active or inactive are those of the source. The rule behind the calls is not given here.

Legend:
[1] = target: T1, Androgen receptor (Homo sapiens) (UniProt P10275); assay: (§1) Antagonist activity at AR in human LNCaP cells transfected with PSA assessed as inhibition of R1881-induced PSA luciferase activity pretreated with compound followed by R1881 addition and measured after 48 hrs by luciferase assay; assay type: cell-based; settings: filed as antagonist
T1 sequence (whole entry): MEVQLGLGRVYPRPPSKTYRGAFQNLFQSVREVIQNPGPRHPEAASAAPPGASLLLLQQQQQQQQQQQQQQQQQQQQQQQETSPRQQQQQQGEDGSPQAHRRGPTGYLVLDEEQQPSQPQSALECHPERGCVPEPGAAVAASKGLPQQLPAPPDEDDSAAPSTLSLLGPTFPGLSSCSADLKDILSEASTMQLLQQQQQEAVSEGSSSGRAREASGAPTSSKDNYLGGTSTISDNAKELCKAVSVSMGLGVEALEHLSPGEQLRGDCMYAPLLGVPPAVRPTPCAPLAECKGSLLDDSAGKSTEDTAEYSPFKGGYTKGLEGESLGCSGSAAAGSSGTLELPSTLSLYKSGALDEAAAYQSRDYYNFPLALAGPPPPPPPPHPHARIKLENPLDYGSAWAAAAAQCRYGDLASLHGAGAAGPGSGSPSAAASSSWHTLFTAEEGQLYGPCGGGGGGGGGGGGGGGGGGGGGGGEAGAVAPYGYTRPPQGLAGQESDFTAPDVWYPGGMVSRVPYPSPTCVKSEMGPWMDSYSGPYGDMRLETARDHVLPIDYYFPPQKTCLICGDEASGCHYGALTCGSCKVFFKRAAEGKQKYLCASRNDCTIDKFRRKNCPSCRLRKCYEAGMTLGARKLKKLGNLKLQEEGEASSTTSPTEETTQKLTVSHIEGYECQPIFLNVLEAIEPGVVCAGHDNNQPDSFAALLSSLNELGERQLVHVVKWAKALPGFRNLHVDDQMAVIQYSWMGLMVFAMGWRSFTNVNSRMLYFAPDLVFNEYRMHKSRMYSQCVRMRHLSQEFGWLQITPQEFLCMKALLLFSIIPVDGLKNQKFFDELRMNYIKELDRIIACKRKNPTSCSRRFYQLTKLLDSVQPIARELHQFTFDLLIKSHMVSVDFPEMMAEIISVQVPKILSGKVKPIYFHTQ

[2] = target: T1, Androgen receptor (Homo sapiens); assay: Antagonist activity at AR in human LNCaP cells transfected with PSA assessed as inhibition of R1881-induced PSA luciferase activity pretreated with compound followed by R1881 addition at 15 uM and measured after 48 hrs by luciferase assay; assay type: cell-based
[3] = target: T1, Androgen receptor (Homo sapiens); assay: Antagonist activity at AR in human LNCaP cells transfected with PSA assessed as inhibition of R1881-induced PSA luciferase activity pretreated with compound followed by R1881 addition at 35 uM and measured after 48 hrs by luciferase assay; assay type: cell-based
[4] = target: T1, Androgen receptor (Homo sapiens); assay: Antagonist activity at AR in human LNCaP cells transfected with PSA assessed as inhibition of R1881-induced PSA luciferase activity pretreated with compound followed by R1881 addition at 5 uM and measured after 48 hrs by luciferase assay; assay type: cell-based
DU-145 = assay: Cytotoxicity against human DU145 cells assessed as reduction in cell viability after 72 hrs by Alamar blue assay; assay type: functional, cell-based; settings: DU-145, 72 h
PC-3 = assay: Cytotoxicity against human PC3 cells assessed as reduction in cell viability after 72 hrs by Alamar blue assay; assay type: functional, cell-based; settings: PC-3, 72 h
[5] = target: T1, Androgen receptor (Homo sapiens); assay: Antagonist activity at AR in human LNCaP cells transfected with PSA assessed as inhibition of R1881-induced PSA luciferase activity pretreated with compound followed by R1881 addition at 10 uM and measured after 48 hrs by luciferase assay; assay type: cell-based
Androgen receptor = target: T2, Androgen receptor (Homo sapiens, UniProt P10275); assay: as §1; assay type: cell-based
T2 sequence (P10275 whole entry): T1 sequence (whole entry)

[6] = target: T1, Androgen receptor (Homo sapiens); assay: Antagonist activity at AR in human LNCaP cells transfected with PSA assessed as inhibition of R1881-induced PSA luciferase activity pretreated with compound followed by R1881 addition at 25 uM and measured after 48 hrs by luciferase assay; assay type: cell-based
[7] = target: T1, Androgen receptor (Homo sapiens); assay: Antagonist activity at AR in human LNCaP cells transfected with PSA assessed as inhibition of R1881-induced PSA luciferase activity pretreated with compound followed by R1881 addition at 50 uM and measured after 48 hrs by luciferase assay; assay type: cell-based

Structure (SMILES): CCC(=O)N[C@H](CCC(Cl)Cl)C(=O)N1C(=O)C=C(OC)[C@H]1CCC(Cl)Cl
- Activity [1]: Dose-Dependent Effect

Structure (SMILES): CCC(=O)N[C@H](CCC(Cl)Cl)C(=O)N1C(=O)C=C(OC)[C@@H]1CCC(Cl)Cl
- Activity [1]: Dose-Dependent Effect

Structure (SMILES): CCC(=O)N[C@H](CCC(Cl)(Cl)Cl)C(=O)N1C(=O)C=C(OC)[C@H]1CCC(Cl)(Cl)Cl
- Activity [1]: Dose-Dependent Effect

- Activity [2]: inactive
- Activity [3]: inactive
- Activity [4]: inactive
Structure (SMILES): CCC(=O)N[C@H](CC(C)C)C(=O)N1C(=O)C=C(OC)[C@@H]1CC(C)C

Structure (SMILES): CCC(=O)N[C@H](C[C@H](C)C(Cl)(Cl)Cl)C(=O)N1C(=O)C=C(OC)[C@@H]1C[C@H](C)C(Cl)Cl
- IC50 (DU-145): > 35 µM
- IC50 (PC-3): 29 µM
- Activity ([5]; filed as antagonist): Active
- Activity ([4]; filed as antagonist): Active
- IC50 (Androgen receptor): 6.5 µM

Structure (SMILES): CCC(=O)N[C@H](C[C@H](C)C(Cl)(Cl)Cl)C(=O)N1C(=O)C=C(OC)[C@@H]1C[C@H](C)C(Cl)(Cl)Cl
- Activity ([5]; filed as antagonist): Active
- Activity ([4]; filed as antagonist): Active

Structure (SMILES): CCC(=O)N[C@H](CCCCl)C(=O)N1C(=O)C=C(OC)[C@@H]1CCCCl
- Activity [6]: inactive
- Activity [5]: inactive
- Activity [7]: inactive

Structure (SMILES): CCC(=O)N[C@H](CCC(Cl)(Cl)Cl)C(=O)N1C(=O)C=C(OC)[C@@H]1CCC(Cl)(Cl)Cl
- Activity [1]: Dose-Dependent Effect
